Test results published in patent US6946447B2, “MDM2-specific antisense oligonucleotides” (Hybridon, Inc., priority 1997, dated 2005).
Strand notation (5' to 3'): a small letter for the sugar, then the base; units joined by * are phosphorothioate-linked, units joined directly phosphodiester-linked; [ ] holds rarer units or linkages, { } end groups; capitals alone tell only the bases. d = 2'-deoxy (DNA)

Columns and labels:
MDM2 = MDM2 protein level by immunoprecipitation/Western blot in oligonucleotide-treated cells; format: cell-based, human; conditions: JAR cells, 18 h, Lipofectin 7 μg/ml, Western blot (FIG. 2A)
DNA synthesis = DNA synthesis by BrdU incorporation normalized to viable cells; format: cell-based; conditions: cell lines that do not undergo significant apoptosis, 100 nM, 20 hr (FIG. 15)
p53 [1] = assay: Nuclear p53 level by immunofluorescence staining with Pab1801; format: cell-based, human; conditions: MCF-7 cells, 200 nM, 20 hr
p53 [2] = assay: BP100-luciferase reporter in several representative cell lines; format: cell-based; conditions: stably transfected cell lines, 20 hr (FIG. 13)
Method: Cells stably transfected with the BP100-luciferase reporter were treated with antisense oligonucleotides at indicated concentrations for 20 hr. Luciferase activity/unit protein was determined and the magnitude of induction was shown compared to cells not treated with oligonucleotides. AS2M4: a 4 bp mismatch control of AS5-2. K: an unrelated oligonucleotide.
In order to determine whether the p53 protein that accumulates after inhibition of MDM2 is functionally active, a p53-responsive BP100-luciferase reporter plasmid was transfected into several representative cell lines. Stably transfected cells were then treated with AS5-2 or control oligonucleotides. […] The magnitude of p53 transcription activation is consistent with the fact that most of the p53 accumulation occurs in the nucleus, which has a low basal level of p53.

Substance | inhibition of MDM2 expression (MDM2) | rate of DNA synthesis (BrdU incorporation) (DNA synthesis) | nuclear p53 staining (p53 [1]) | induction of p53 transcription function (p53 [2])
K: control oligonucleotide complementary to an ion channel, 5′-CAGAGCCTTCATCTTCCCAG-3′; SEQ ID NO:6 (chemistry not given here) | not observed | not observed | did not induce p53 | –
AS2M4: 4 bp mismatch control of AS5-2, 5′-TGACTCTTGTCCTTACTCAC-3′; SEQ ID NO: 26 (DNA dT*dG*dA*dC*dT*dC*dT*dT*dG*dT*dC*dC*dT*dT*dA*dC*dT*dC*dA*dC) | – | weaker | – | significantly reduced efficiency
